Measured values published in patent US10407734B2, “Compositions and methods of using transposons” (Yale University, priority 2013, dated 2019).
Entries after “also recorded” stand apart in the source; their conditions may differ.

Assays:
AML-RAS cells [1] = assay: AlamarBlue cell viability assay on AML-RAS cells; type: cell-based, human; conditions: 3 days after treatment; 20 mM LiCl, 5 uM Kenpaullone or 2 uM BIO
Description: (§1) Cell Viability Assay. To determine the effects of various drug treatments on oncogenic RAS mutant cells, an AlamarBlue assay (Invitrogen) was performed. 2500 cells were seeded in triplicate in 96-well plates one day prior to drug treatments. For TRI-102 and AML-RAS cells, fluorescence was measured at 72 hrs after drug addition. For other oncogenic RAS cells, fluorescence was measured 120 hrs after drug addition.
as §1, with “cells,” for “cells, an”

[2] = system: patient-derived cancer cells with oncogenic RAS mutations (lung, colon, pancreatic, melanocytic); assay: AlamarBlue cell viability assay on panel of 17 patient-derived oncogenic RAS cancer cells; type: cell-based, human; conditions: panel of 17 lines; viable cells vs vehicle after 5 days
Description: as §1
as §1, with “cells,” for “cells, an”

A549 lung cancer cells = assay: AlamarBlue cell viability assay on A549 cells; type: cell-based, human; conditions: viable cells vs vehicle after 5 days; SMARCA4 frame shift deletion
Description: as §1
as §1, with “cells,” for “cells, an”

AML-RAS cells [3] = assay: Soft agar assay on AML-RAS cells; type: cell-based, human; conditions: 20 mM LiCl; colonies counted after 3-4 weeks
Description: (§2) Softagar Assay. Soft agar assays were performed in triplicate in 6-well plates. For each well, a bottom layer containing 1% agar in growth medium was added. Then 10,000 cells were plated in 0.5% agar in growth medium. Growth medium was added to each well and changed every 3 days. The colonies were counted after 3-4 weeks.

AML-RAS xenografts = assay: AML-RAS cell xenograft model; type: in vivo, nude mice; conditions: LiCl 340 mg/kg intraperitoneal every two days, 28 days
Description: (§3) Xenograft. 10^6 AML-RAS cells were resuspended in PBS and inoculated subcutaneously into both flanks of 6-week old female nude mice (Charles River Laboratory). Seven days after transplantation, animals were treated with intraperitoneal injections of LiCl (340 mg/kg body weight), or an equal volume of vehicle (PBS) every two days. Tumor volume (mm3) and body weight (g) were measured every 2 days. The tumor volume was estimated by using caliper measurements based on formula W^2×L/2 (L is the length of the tumor, W is the width of the tumor). All experiments were approved by and conducted in compliance with the Yale Animal Resources Center and the Institutional Animal Care and Use Committee under protocol number 2008-10230.
as §3, with “estimated” for “estimated by”, “All experiments were approved by and conducted in compliance with the Yale Animal Resources Center and the Institutional Animal Care and Use Committee under protocol number 2008-10230.” left out

H1792 cells = assay: Soft agar assay on H1792 cells; type: cell-based, human; conditions: 20 mM LiCl
Description: as §2

A549 cells = assay: Soft agar assay on A549 cells; type: cell-based, human; conditions: 20 mM LiCl
Description: as §2

Compound	growth of the AML-RAS cells (viable cells) (AML-RAS cells [1])	growth of patient-derived cancer cells harboring oncogenic KRAS, NRAS or HRAS mutations [2]	growth of A549 lung cancer cells (A549 lung cancer cells)	anchorage-independent growth of the AML-RAS cells in soft agar (AML-RAS cells [3])	tumor growth in AML-RAS xenografts (AML-RAS xenografts; nude mice)	health of the recipient mice (body weight) (AML-RAS xenografts; tumor-suppressing dose)	anchorage-independent growth of the H1792 cells in soft agar (H1792 cells)	anchorage-independent growth of the A549 cells in soft agar (A549 cells)
O=C1Nc2cc(Br)ccc2/C1=C1/Nc2ccccc2/C1=N\O [BIO, 6-bromoindirubin-30-oxime]	specifically inhibited the growth	suppresses the growth	not significantly suppressed	–	–	–	–	–
O=C1Cc2c([nH]c3ccc(Br)cc23)-c2ccccc2N1 [Kenpaullone]	specifically inhibited the growth	suppresses the growth	not significantly suppressed	–	–	–	–	–
[Cl-].[Li+] [LiCl, lithium chloride]	specifically impaired the growth	suppresses the growth	not significantly suppressed	prevented; also recorded: dramatically suppressed	dramatically suppressed	not affected	completely inhibited; also recorded: dramatically inhibited	failed to suppress
